19 compounds from PubChem BioAssay AID743319 (Broad Institute, 2014) can be followed below.

Active and inactive are the calls of the source.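 The calls were made as follows: active = fitted curve reaches 200% activation at or below the highest valid dose tested for that compound; inconclusive = flat fit between 30 and 70% activation, or unreliable fit; inactive = the rest.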

The assay deals with Endoplasmic reticulum aminopeptidase 2 (Homo sapiens) (UniProt Q6P179). The experiment in a line: ERAP2 activation by compounds, dose response, selectivity assay for selective ERAP1 modulator project, biochemical, fluorescence plate reader, cherry-picked samples (AID 743319). As to conditions: recombinant ERAP2, Arg-AMC cleavage fluorescence, 1 h.
Chain of Endoplasmic reticulum aminopeptidase 2 (Homo sapiens) (Q6P179 whole entry, looked up): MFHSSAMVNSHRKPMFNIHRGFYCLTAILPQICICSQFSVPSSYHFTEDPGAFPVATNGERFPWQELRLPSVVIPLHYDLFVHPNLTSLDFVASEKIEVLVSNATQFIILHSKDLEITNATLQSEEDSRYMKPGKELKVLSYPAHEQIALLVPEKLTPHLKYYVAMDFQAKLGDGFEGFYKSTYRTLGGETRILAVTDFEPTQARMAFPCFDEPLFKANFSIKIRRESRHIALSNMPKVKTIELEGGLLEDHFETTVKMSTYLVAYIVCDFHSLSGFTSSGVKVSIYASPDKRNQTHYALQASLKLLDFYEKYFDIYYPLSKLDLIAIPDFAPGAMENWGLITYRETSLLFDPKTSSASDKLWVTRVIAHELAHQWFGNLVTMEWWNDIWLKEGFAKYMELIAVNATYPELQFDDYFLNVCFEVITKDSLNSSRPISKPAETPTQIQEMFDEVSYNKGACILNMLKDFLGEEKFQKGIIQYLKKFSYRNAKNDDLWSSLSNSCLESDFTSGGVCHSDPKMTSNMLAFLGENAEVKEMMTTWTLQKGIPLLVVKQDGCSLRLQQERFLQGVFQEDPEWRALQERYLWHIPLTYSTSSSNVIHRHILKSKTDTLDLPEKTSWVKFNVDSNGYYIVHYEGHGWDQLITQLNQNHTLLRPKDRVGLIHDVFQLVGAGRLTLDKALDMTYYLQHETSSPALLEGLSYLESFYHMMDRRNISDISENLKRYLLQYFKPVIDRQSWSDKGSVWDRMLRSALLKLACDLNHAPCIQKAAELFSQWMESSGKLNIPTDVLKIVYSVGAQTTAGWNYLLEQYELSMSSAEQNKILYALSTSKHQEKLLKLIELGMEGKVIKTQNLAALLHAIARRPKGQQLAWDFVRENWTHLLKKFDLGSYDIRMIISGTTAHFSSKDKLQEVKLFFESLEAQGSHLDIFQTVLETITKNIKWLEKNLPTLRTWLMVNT

For `COc1ccc(NC(=O)Nc2cccc3c2O[C@H](CN(C)Cc2ccc(C(=O)O)cc2)[C@H](C)CN([C@H](C)CO)C3=O)cc1`, the activation (at 11 µM (top of the series)) was 15.1% (inactive).

Regarding `CCCN(C)C[C@@H]1OCCCC[C@@H](C)Oc2ccc(NS(=O)(=O)c3cccs3)cc2C(=O)N([C@H](C)CO)C[C@@H]1C`, the activation (at 11 µM (top of the series)) was 11% (inactive). With `O=c1oc2cc(O)ccc2cc1S(=O)(=O)c1ccccc1`, the AC200 was 592 nM.

For the compound `Cc1noc(C)c1NC(=O)Nc1ccc2c(c1)C(=O)N([C@H](C)CO)C[C@@H](C)[C@@H](CN(C)Cc1ccc(C(F)(F)F)cc1)OCCCC[C@@H](C)O2`, the activation (at 11 µM (top of the series)) was -2.75% (inactive). With `Cc1cc(=O)oc2c(CN3CCCC3)c(O)c(Cl)cc12`, the AC200 was 1400 nM.

Take `COc1ccc(CN(C)C[C@@H]2OCCCC[C@@H](C)Oc3ccc(NS(=O)(=O)c4cccs4)cc3C(=O)N([C@H](C)CO)C[C@H]2C)cc1`: for the setting “at 11 µM (top of the series)”, the activation was 1.04% (inactive).

For `CC1CN(Cc2cc(=O)oc3cc(O)c(Cl)cc23)CC(C)O1` (centres undefined), the AC200 is 2520 nM. Same read-out and setting: the figure for `O=C(NCC1CC1)[C@H]1[C@H](CO)[C@H]2Cn3c(ccc(/C=C/c4ccccc4)c3=O)[C@@H]1N2C(=O)C1CC1` is 1770 nM. Regarding `COC(=O)[C@H]1[C@H](CO)[C@H]2Cn3c(ccc(-c4ccncc4)c3=O)[C@H]2N1Cc1ccccc1F`, the activation (at 11 µM (top of the series)) is 15.2% (inactive).

Consider `C/C(=N\NC(=O)CC#N)c1cc2ccc(O)cc2oc1=O`, for which the AC200 is 2300 nM. The same measure, in the same setting: in the case of `CN(C)Cc1c(O)ccc2cc(-c3nc4ccccc4n3C)c(=O)oc12` it was 445 nM.

`CCCN(C)C[C@@H]1OCCCC[C@@H](C)Oc2ccc(NS(=O)(=O)c3c(C)noc3C)cc2C(=O)N([C@H](C)CO)C[C@@H]1C`: under “at 10 µM (top of the series)”, the activation is -3.16% (inactive). As to `O=C(C[C@H]1CC[C@@H]2[C@H](COC[C@@H](O)CN2C(=O)Nc2cccc(Cl)c2)O1)N1CCCCC1`, the activation (at 11 µM (top of the series)) was 32.4% (inactive).

Take `C[C@@H]1CCCCO[C@@H](CN(C)Cc2ccccc2)[C@@H](C)CN([C@H](C)CO)C(=O)c2cc(NS(=O)(=O)c3cccs3)ccc2O1`: the activation (at 5.6 µM (top of the series)) is 12.1% (inactive). Turning to `Cc1cc(=O)oc2c(CN3CCN(CCO)CC3)c(O)ccc12`, the AC200 is 3010 nM. As to `Cc1cc(=O)oc2cc(OCC(=O)N3CCN(C(C)c4ccccc4)CC3)c(Cl)cc12` (centres undefined), the AC200 is 3960 nM. In the case of `COc1ccc(-c2cc3ccc(O)cc3oc2=O)cc1OC`, the AC200 was 1880 nM. For the compound `CCc1cc(=O)oc2c(CN3CCN(C)CC3)c(O)ccc12`, the AC200 is 3170 nM. On to `CO[C@@H]1CN(C)C(=O)c2ccc(NC(=O)Nc3cccc(Cl)c3)cc2OC[C@@H](C)NC[C@H]1C`, for which the activation (at 11 µM (top of the series)) is 3.9% (inactive).
